Laboratory results taken from patent publication US20010056085A1, “Methods of using vesicant drug formulations” (priority 1996, published 2001).
Where two headings read alike, the source gives them in different places.

Assay: Half-life of ADR destruction by UVA light in the presence of test compounds (decrease in absorbance at 480 nm)
Assay type: physicochemical
[1] = UVA light, 100 μM test compound alone
[2] = UVA light, 100 μM test compound with 0.5 μM riboflavin

Molecule	Half-Life of ADR Destruction, 100 μM Test Compound [1] [min]	Half-Life of ADR Destruction, 100 μM Test Compound and 0.5 μM Riboflavin [2] [min]	also measured
COc1ccc2[nH]c(C)c(CC(=O)O)c2c1 [5-Methoxy-2-methylindole-3-acetic acid]	25.1	4.78	
O=C(C(=O)c1ccco1)c1ccco1 [Furil]	43.0	33.5	
Nc1ccc(Cc2ccccc2)cc1 [4-Aminodiphenylmethane]	43.0	5.57	
COc1ccccc1CN [2-Methoxy Benzylamine]		43.0	
4-Ethoxyphenyl-2-furyl ketone	12.5	11.2	
COc1cc2ccc(=O)oc2cc1OC [6,7-Dimethoxycoumarin]	21.5		
NS(=O)(=O)c1ccccc1 [Benzenesulfonamide]			Half-Life of ADR Destruction, 100 μM Test Compound and 0.5 μM Riboflavin: 50.2 min
COc1cc(OC)c2ccc(=O)oc2c1 [5,7-Dimethoxycoumarin]	27.4	23.2	
COc1ccc2cc(CCC(C)=O)ccc2c1 [Nabumetone, 4-(6-Methoxy-2-naphthyl)-butan-2-one, reference compound]	27.4	8.6	Half-Life of ADR Destruction, 100 μM Test Compound and 0.5 μM Riboflavin (UVA light, 100 μM test compound with 0.5 μM riboflavin, listed as 4-(6-Methoxy-2-naphthyl)-butan-2-one (Nabumetone)): 8.60 min
O=C(O)CCCc1ccc2ccccc2c1 [4-(2-Naphthyl)butyric acid]	43.0	15.1	
O=C(O)Cc1c[nH]c2ccc(O)cc12 [5-Hydroxyindole-3-acetic acid]		150.5	
O=C(O)/C=C/c1ccccc1 [trans-Cinnamic Acid]	43.0		
Nc1ccc([N+](=O)[O-])cc1[N+](=O)[O-] [2,4-Dinitro Aniline]			Half-Life of ADR Destruction, 100 μM Test Compound: 75.3 min; Half-Life of ADR Destruction, 100 μM Test Compound and 0.5 μM Riboflavin: 50.2 min
O=C(O)c1cc2ccccc2o1 [2-Benzofurancarboxylic acid]		50.2	
NC(C(=O)O)c1ccc(O)cc1 (stereo not shown) [4-Hydroxy Phenylglycine]		24.2 ± 19.0	
CC(C(=O)O)c1ccc(N2Cc3ccccc3C2=O)cc1 (stereo not drawn) [Indoprofen, 4-(1-Isoindolinone)-α-Methyl Phenylacetic Acid, reference compound]	75.3	25.1	
O=C(O)CCCc1ccccc1 [4-Phenyl Butyric Acid]	43.0	33.5	
c1cc2c([nH]1)CCCC2 [4,5,6,7-tetrahydroindole]		14.3	
CC(C(=O)O)c1ccc(-c2ccccc2)c(F)c1 (stereo not drawn) [Flurbiprofen, 4-Phenyl-3-Fluoro-α-Methyl Phenylacetic Acid, reference compound]	75.3	50.2	

Molecule	Half-Life of ADR Destruction, 100 μM Test Compound [1] [min]	Half-Life of ADR Destruction, 100 μM Test Compound and 0.5 μM Riboflavin [2] [min]	also measured
O=C(O)C(=O)c1c[nH]c2ccccc12 [3-Indole glyoxylic acid]		43.0	
COc1ccc(C(=O)O)cc1 [4-Methoxy Benzoic Acid]		33.5	
Nc1ccc2c(O)cc(S(=O)(=O)O)cc2c1 [7-Amino-4-hydroxy-2-naphthalenesulfonic acid]		30.1	
O=C1c2ccccc2-c2ccccc21 [Compound 9-Fluorenone, 9-Fluorenone]		43.0	
O=C(c1ccco1)c1cccs1 [2-Furyl-2-thienyl ketone]	7.00		
CCCCc1ccc(N)cc1 [4-Butyl Anilne]			Half-Life of ADR Destruction, 100 μM Test Compound and 0.5 μM Riboflavin: 7.17 min
COc1ccc2c(c1)c(CC(=O)O)c(C)n2C(=O)c1ccc(Cl)cc1 [Indomethacin, 1-(4-Chlorobenzoyl)-5-Methoxy-2-Methyl-indole-3-acetic acid, reference compound]	100.3		
CC(C)(C)c1cc(C(C)(C)C)c(N)c(C(C)(C)C)c1 [2,4,6-Tri-tert-butyl Aniline]		43.0	
COc1ccc2[nH]c(C)cc2c1 [5-Methoxy-2-methyl Indole]			Half-Life of ADR Destruction, 100 μM Test Compound: 27.4 min; Half-Life of ADR Destruction, 100 μM Test Compound and 0.5 μM Riboflavin: 7.00 min
O=C(O)CCc1c[nH]c2ccccc12 [Indole-3-propionic acid]		9.5 ± 3.5	
COc1ccc(CCCO)cc1OC [3-(3,4-Dimethoxyphenyl)-1-Propanol]	43.0	4.78	
Nc1c(-c2ccccc2)cc(-c2ccccc2)cc1-c1ccccc1 [2,4,6-Triphenylaniline]		33.5	
Cn1cc(C[C@H](N)C(=O)O)c2ccccc21 [1-Methyl-tryptophan]		9.71	
Cc1[nH]c2ccccc2c1C [2,3-Dimethyl Indole]		20.1	
O=C(O)c1ccc2ccccc2c1 [Naphthalene-2-carboxylic acid]	50.2	43.0	
CCc1cccc2c3c([nH]c12)C(CC)(CC(=O)O)OCC3 (stereo not shown) [Etodolac, reference compound]	33.5	6.41	
O=C(O)CCOc1cccc2ccccc12 [3-(1-naphthyloxy) propionic acid]	75.3		
CC(=O)c1c[nH]c2ccccc12 [3-Acetylindole]		33.5	
COc1ccc(O)cc1 [4-Methoxy Phenol]	50.2	43.0	
